Active and inactive are the calls of the source. The rule behind the calls is not given here.
Assays:
[1] = test system: HT-22; test: Cytotoxicity against mouse HT-22 cells assessed as reduction in cell viability at 30 uM incubated for 24 hrs by MTT assay; format: toxicity, cell-based; settings: ht-22, 24 h
[2] = test system: HT-22; test: Inhibition of RSL3-induced ferroptosis in mouse HT-22 cells assessed as downregulation of PTGS2 mRNA expression at 10 to 30 uM incubated for 4 hrs by qRT-PCR analysis; format: functional, cell-based; settings: dose 10-30 µM
[3] = test system: HT-22; test: Inhibition of TNFalpha/AZD5582/Z-VAD-fmk induced necroptosis in mouse HT-22 cells at 30 uM incubated for 24 hrs; format: functional, cell-based
[4] = test system: HT-22; test: Inhibition of glutamate-induced ferroptosis in mouse HT-22 cells at 30 uM incubated for 24 hrs; format: functional, cell-based
[5] = Metal chelating activity assessed as Fe2+-compound complex formation at 50 mM in presence of FeSO4 by UV-Visible spectrophotometry
[6] = test system: HT-22; test: Inhibition of RSL3-induced ferroptosis in mouse HT-22 cells assessed as increase in cell viability incubated for 24 hrs by MTT assay; format: functional, cell-based; settings: HT-22, 24 h
[7] = test system: HT-22; test: Inhibition of RSL3-induced ferroptosis in mouse HT-22 cells assessed as reduction in lipid accumulation incubated for 4 hrs by BODIPY-C11 based flow cytometric analysis; format: functional, cell-based; settings: dose 3-30 µM
[8] = test system: HT-22; test: Inhibition of STS-induced apoptosis in mouse HT-22 cells at 30 uM incubated for 24 hrs; format: functional, cell-based
[9] = test system: HT-22; test: Reversal of RSL3-induced morphological changes in mouse HT-22 cells incubated for 24 hrs; format: functional, cell-based; settings: dose 3-30 µM
[10] = test system: HT-22; test: Inhibition of H2O2-induced necrosis in mouse HT-22 cells at 30 uM incubated for 24 hrs; format: functional, cell-based
[11] = test system: HT-22; test: Inhibition of RSL3-induced ferroptosis in mouse HT-22 cells assessed as reduction in cytosolic ROS accumulation incubated for 4 hrs by carboxy-H2DCFDA based flow cytometric analysis; format: functional, cell-based; settings: dose 3-30 µM
[12] = Antioxidant activity assessed as DPPH radical scavenging activity at 100 uM measured after 30 mins by microplate spectrophotometer analysis; format: functional
[13] = test system: HT-22; test: Inhibition of RSL3-induced ferroptosis in mouse HT-22 cells assessed as increase in cell viability at 30 uM incubated for 24 hrs by MTT assay; format: functional, cell-based
[14] = test system: BV-2; test: Anti-inflammatory activity in mouse BV-2 cells assessed as inhibition of LPS-induced NO accumulation measured after 24 hrs by Griess reagent-based analysis; format: functional, cell-based; settings: BV-2, 24 h
[15] = test system: BV-2; test: Cytotoxicity against mouse BV-2 cells assessed as reduction in cell viability at 10 to 30 uM incubated for 24 hrs by MTT assay; format: toxicity, cell-based; settings: bv-2, 24 h, dose 10-30 µM

Compound | Activity [1] | other results
C=C1CCC[C@@H]2[C@@](C)(CCC3=C[C@@H](OCC)O[C@@H]3OCC)[C@H](C)C[C@H](O)[C@@]12C | Non-Toxic | 
C=C1CCC[C@@H]2[C@@](C)(CCC3=C[C@@H](OCC)OC3=O)[C@H](C)C[C@H](O)[C@@]12C | Non-Toxic | 
C=C1CCC[C@@H]2[C@@](C)(CC/C(=C/CO)CO)[C@H](C)C[C@H](O)[C@@]12C | Non-Toxic | 
C[C@@H]1C[C@H](O)[C@]2(C)[C@H](CCC[C@]23CO[C@@](C)(O)O3)[C@@]1(C)CCc1ccoc1 | Non-Toxic | inhibition [2]: Active; inhibition [3]: inactive; inhibition [4]: Active; Activity [5]: inactive; EC50 [6]: 10 µM; inhibition [7]: Dose-Dependent Effect; inhibition [8]: inactive; Activity [9]: Dose-Dependent Effect; inhibition [10]: inactive; inhibition [11]: Dose-Dependent Effect; Activity [12]: inactive
CCOC(=O)CC(=O)OC[C@@]1(O)CCC[C@@H]2[C@@](C)(CCc3ccoc3)[C@H](C)C[C@H](O)[C@]21C | Non-Toxic | 
C=C1CCC[C@@H]2[C@@](C)(CCc3ccoc3)[C@H](C)C[C@H](O)[C@@]12C | Non-Toxic | inhibition [13]: Active
C=C1CCC[C@@H]2[C@@](C)(CCC3=C[C@H](OCC)O[C@@H]3OCC)[C@H](C)C[C@H](O)[C@@]12C | Non-Toxic | 
COC1C=C(CC[C@@]2(C)[C@H](C)C[C@H](O)[C@]3(COC(C)=O)[C@@H]2CCC[C@]32CO2)C(=O)O1 (stereo partly specified) | Non-Toxic | 
CC(=O)N(O)CCCCCNC(=O)CCC(=O)N(O)CCCCCNC(=O)CCC(=O)N(O)CCCCCN |  | Activity [5]: Active
C=C1CCC[C@@H]2[C@@](C)(CC[C@]3(O)[C@@H](OCC)O[C@H](OCC)[C@H]3O)[C@H](C)C[C@H](O)[C@@]12C | Non-Toxic | 
C=C1CCC[C@@H]2[C@@](C)(CCC3=CC(=O)OC3)[C@H](C)C[C@H](O)[C@@]12C | Non-Toxic | 
C=C1CCC[C@@H]2[C@@](C)(CCC3=CC(OC)OC3=O)[C@H](C)C[C@H](O)[C@@]12C (stereo partly specified) | Non-Toxic | IC50 [14]: 41 µM
Oc1ccc(/C=C/c2cc(O)cc(O)c2)cc1 [RESVERATROL] |  | IC50 [14]: 32 µM
C=C1CCC[C@H]2[C@@]1(C)C(=O)C[C@@H](C)[C@]2(C)CCC1=CC(OC)OC1=O (stereo partly specified) | Non-Toxic | IC50 [14]: 9.7 µM; Activity [15]: Non-Toxic
C[C@@H]1C[C@H](O)[C@]2(C)[C@H](CCC[C@@]2(O)CO)[C@@]1(C)CCc1ccoc1 | Non-Toxic | inhibition [13]: Active
C=C1CCC[C@@H]2[C@@](C)(CCC3=CC(O)OC3=O)[C@H](C)C[C@H](O)[C@@]12C (stereo partly specified) | Non-Toxic | 
CCO[C@@H]1C[C@@H]2C(C=O)=C(C)C[C@@H]2O1 | Non-Toxic | 
C[C@@H]1C[C@H](C)C2=C(CO)CCC[C@@H]2[C@@]1(C)CCc1ccoc1 | Non-Toxic | inhibition [13]: Active
CC(=O)OC[C@@]1(O)CCC[C@@H]2[C@@](C)(CCc3ccoc3)[C@H](C)C[C@H](O)[C@]21C | Non-Toxic | 
C[C@@H]1C[C@@H]2OC(=O)[C@@H]3CCC[C@H]([C@@]1(C)CCc1ccoc1)[C@@]23C | Non-Toxic | 
C[C@@H]1C[C@H](O)[C@]2(C)[C@H](CCC[C@]2(O)CO)[C@@]1(C)CCc1ccoc1 | Non-Toxic | inhibition [13]: Active
C=C1CCC[C@@H]2[C@@](C)(CCC3=C[C@H](OCC)OC3=O)[C@H](C)C[C@H](O)[C@@]12C | Non-Toxic | 
C=C1CCC[C@@H]2[C@@](C)(CCC3=CC(=O)OC3C)[C@H](C)C[C@H](O)[C@@]12C (stereo partly specified) | Non-Toxic | 

From ChEMBL document CHEMBL5325506, “Discovery of neo-Clerodane Diterpenoids from Ajuga campylantha as Neuroprotective Agents against Ferroptosis and Neuroinflammation” (J Nat Prod, 2023)
